Results as given in patent US20240043456A1 (Unity Biotechnology, Inc., priority 2020, published 2024).

Experiments:
[1] = Chemical stability of free acid and salts during salt preparation; format: physicochemical
[2] = 12-month stability test, HPLC; format: physicochemical; design: HPLC result, RRT 1.09: unit not given beside the values; settings: for HPLC result, RRT 0.86 / HPLC result, RRT 0.94 / HPLC result, RRT 1 / HPLC result, RRT 1.05 / HPLC result, RRT 1.09 / HPLC result, RRT 1.15 / HPLC result, RRT 1.27 / HPLC result, RRT 1.29 / HPLC result, RRT 1.65: 2-8° C.

Nc1cc(Cl)nc(C(=O)[O-])c1Cl.[K+] [potassium salt]
stability of the salt [1]: unstable

(R)-5-(4-chlorophenyl)-1-isopropyl-2-methyl-4-(3-(4-(4-((4-((1-(phenylthio)-4-(4-((phosphonooxy)methyl)piperidin-1-yl)butan-2-yl)amino)-3-((trifluoromethyl)sulfonyl)phenyl)sulfonamido)phenyl)piperazin-1-yl)phenyl)-1H-pyrrole-3-carboxylic acid meglumine salt
HPLC result, RRT 0.86 ([2]; 1 month): 0.05 | HPLC result, RRT 0.94 ([2]; 1 month): 0.07 | HPLC result, RRT 1 ([2]; 1 month): 99.4 | HPLC result, RRT 1.05 ([2]; 1 month): <0.05 | HPLC result, RRT 1.09 ([2]; 1 month): 0.07 | HPLC result, RRT 1.15 ([2]; 1 month): <0.05 | HPLC result, RRT 1.27 ([2]; 1 month): <0.05 | HPLC result, RRT 1.29 ([2]; 1 month): 0.38 | HPLC result, RRT 0.86 ([2]; 2 months): 0.05 | HPLC result, RRT 0.94 ([2]; 2 months): 0.07 | HPLC result, RRT 1 ([2]; 2 months): 99.4 | HPLC result, RRT 1.05 ([2]; 2 months): <0.05 | HPLC result, RRT 1.09 ([2]; 2 months): 0.08 | HPLC result, RRT 1.15 ([2]; 2 months): <0.05 | HPLC result, RRT 1.27 ([2]; 2 months): <0.05 | HPLC result, RRT 1.29 ([2]; 2 months): 0.40 | HPLC result, RRT 0.86 ([2]; 2 weeks): <0.05 | HPLC result, RRT 0.94 ([2]; 2 weeks): 0.07 | HPLC result, RRT 1 ([2]; 2 weeks): 99.4 | HPLC result, RRT 1.05 ([2]; 2 weeks): <0.05 | HPLC result, RRT 1.09 ([2]; 2 weeks): 0.07 | HPLC result, RRT 1.15 ([2]; 2 weeks): <0.05 | HPLC result, RRT 1.27 ([2]; 2 weeks): <0.05 | HPLC result, RRT 1.29 ([2]; 2 weeks): 0.38 | HPLC result, RRT 1.65 ([2]; 2 weeks): <0.05 | HPLC result, RRT 0.86 ([2]; 3 months): 0.09 | HPLC result, RRT 0.94 ([2]; 3 months): <0.05 | HPLC result, RRT 1 ([2]; 3 months): 99.5 | HPLC result, RRT 1.05 ([2]; 3 months): <0.05 | HPLC result, RRT 1.09 ([2]; 3 months): 0.08 | HPLC result, RRT 1.15 ([2]; 3 months): <0.05 | HPLC result, RRT 1.27 ([2]; 3 months): <0.05 | HPLC result, RRT 1.29 ([2]; 3 months): 0.36 | HPLC result, RRT 1.65 ([2]; 3 months): <0.05 | HPLC result, RRT 0.86 ([2]; 6 months): 0.05 | HPLC result, RRT 0.94 ([2]; 6 months): 0.06 | HPLC result, RRT 1 ([2]; 6 months): 99.3 | HPLC result, RRT 1.05 ([2]; 6 months): 0.05 | HPLC result, RRT 1.09 ([2]; 6 months): 0.06 | HPLC result, RRT 1.15 ([2]; 6 months): <0.05 | HPLC result, RRT 1.27 ([2]; 6 months): <0.05 | HPLC result, RRT 1.29 ([2]; 6 months): 0.44 | HPLC result, RRT 1.65 ([2]; 6 months): <0.05 | HPLC result, RRT 0.86 ([2]; 9 months): 0.08 | HPLC result, RRT 0.94 ([2]; 9 months): 0.06 | HPLC result, RRT 1 ([2]; 9 months): 99.2 | HPLC result, RRT 1.05 ([2]; 9 months): 0.07 | HPLC result, RRT 1.09 ([2]; 9 months): 0.09 | HPLC result, RRT 1.15 ([2]; 9 months): <0.05 | HPLC result, RRT 1.27 ([2]; 9 months): 0.1 | HPLC result, RRT 1.29 ([2]; 9 months): 0.41 | HPLC result, RRT 1.65 ([2]; 9 months): <0.05 | HPLC result, RRT 0.86 ([2]; 12 months): 0.08 | HPLC result, RRT 0.94 ([2]; 12 months): 0.06 | HPLC result, RRT 1 ([2]; 12 months): 99.4 | HPLC result, RRT 1.05 ([2]; 12 months): <0.05 | HPLC result, RRT 1.09 ([2]; 12 months): <0.05 | HPLC result, RRT 1.15 ([2]; 12 months): 0.07 | HPLC result, RRT 1.27 ([2]; 12 months): 0.09 | HPLC result, RRT 1.29 ([2]; 12 months): 0.14 | HPLC result, RRT 1.65 ([2]; 12 months): 0.18 | HPLC result, RRT 0.86 ([2]; T0): 0.06 | HPLC result, RRT 0.94 ([2]; T0): 0.07 | HPLC result, RRT 1 ([2]; T0): 99.6 | HPLC result, RRT 1.05 ([2]; T0): <0.05 | HPLC result, RRT 1.09 ([2]; T0): 0.06 | HPLC result, RRT 1.15 ([2]; T0): <0.05 | HPLC result, RRT 1.27 ([2]; T0): <0.05 | HPLC result, RRT 1.29 ([2]; T0): 0.22 | HPLC result, RRT 1.65 ([2]; T0): <0.05 | change in purity over test period (FIG. 20) ([2]; 12 month test period): little to no change | chemical stability ([1]; under experimental conditions): chemically stable
